Legend:
CatB = target: T1, CatB (Rattus norvegicus, UniProt P00787); experiment: IC50 by competition with radiolabeled general cathepsin probe DCG-04 in rat liver lysate; type: biochemical; settings: 1 mg/ml rat liver lysate, inhibitor 20 minutes, then DCG-04 1 hour
T1 construct: from tissue; host or cells: rat liver lysate / homogenate
Experimental: (§1) Also included in the table for comparison are known compounds JPMOEt and JPMOH (also known as JPM-565). See Meara and Rich, J. Med. Chem. 39:3357-3366, 1996; Bogyo et al, Chem. Biol. 7:27-38, 2000; and Joyce et al., Cancer Cell 5:443-453, 2004. The table also lists cathepsin targets and measured IC50 values for specific compounds. To determine these values, 1 mg/ml of rat liver lysate was incubated with a series of concentrations of the inhibitor for 20 minutes. Then, 1 ul of a radiolabled general cathepsin probe, DCG-04, was added to the solutions and incubated for 1 hour. After fixing and drying the gel, the residual enzyme activity was measured using ImageJ software. The measurements were then transferred to GraphPad Prism 4 to calculate the IC50 values.

CatC = target: T2, CatC (Rattus norvegicus, UniProt P80067); experiment: as above; type: biochemical; settings: 1 mg/ml rat liver lysate, inhibitor 20 minutes, then DCG-04 1 hour
T2 construct: from tissue; host or cells: rat liver lysate
T2 sequence (P80067 25-462): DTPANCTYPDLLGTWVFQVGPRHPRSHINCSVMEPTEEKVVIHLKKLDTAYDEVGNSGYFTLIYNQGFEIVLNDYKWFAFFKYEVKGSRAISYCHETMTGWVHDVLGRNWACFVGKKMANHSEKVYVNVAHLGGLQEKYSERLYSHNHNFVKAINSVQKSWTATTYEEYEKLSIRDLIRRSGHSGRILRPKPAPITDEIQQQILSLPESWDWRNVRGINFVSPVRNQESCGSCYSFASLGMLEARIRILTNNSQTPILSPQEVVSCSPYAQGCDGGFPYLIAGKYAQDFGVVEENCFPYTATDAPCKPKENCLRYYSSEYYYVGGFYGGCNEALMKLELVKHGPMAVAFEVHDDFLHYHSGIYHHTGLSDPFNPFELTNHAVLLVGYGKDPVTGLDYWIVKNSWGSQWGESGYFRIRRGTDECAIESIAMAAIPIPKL
Experimental: as §1

CatH = target: T3, CatH (Rattus norvegicus, UniProt P00786); experiment: as above; type: biochemical; settings: 1 mg/ml rat liver lysate, inhibitor 20 minutes, then DCG-04 1 hour
T3 construct: from tissue; host or cells: rat liver lysate
T3 sequence (P00786 96-333): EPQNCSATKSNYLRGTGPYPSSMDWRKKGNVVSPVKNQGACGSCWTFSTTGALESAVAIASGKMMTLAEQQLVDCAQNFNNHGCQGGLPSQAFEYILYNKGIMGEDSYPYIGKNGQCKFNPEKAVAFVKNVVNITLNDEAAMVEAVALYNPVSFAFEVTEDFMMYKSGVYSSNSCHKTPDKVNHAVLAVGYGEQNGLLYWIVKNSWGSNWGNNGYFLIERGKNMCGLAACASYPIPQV
Experimental: as §1

CatZ (Cathepsin Z) = target: T4, CatZ (Cathepsin Z) (Rattus norvegicus, UniProt Q9R1T3); experiment: as above; type: biochemical; settings: 1 mg/ml rat liver lysate, inhibitor 20 minutes, then DCG-04 1 hour
T4 construct: from tissue; host or cells: rat liver lysate
T4 sequence (Q9R1T3 64-306): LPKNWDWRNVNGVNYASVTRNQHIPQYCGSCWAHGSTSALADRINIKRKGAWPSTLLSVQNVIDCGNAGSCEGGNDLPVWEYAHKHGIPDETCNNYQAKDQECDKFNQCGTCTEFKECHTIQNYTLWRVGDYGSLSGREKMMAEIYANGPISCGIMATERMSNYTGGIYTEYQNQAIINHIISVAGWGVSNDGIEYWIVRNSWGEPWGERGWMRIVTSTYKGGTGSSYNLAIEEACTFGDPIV
Experimental: as §1

cathepsin targets = experiment: Cathepsin targets of the compounds (Table 4); type: biochemical, rat; settings: cathepsin target(s) inhibited; General = all cathepsins
Experimental: as §1

RIP-Tag cancer model = settings: Joyce et al., Cancer Cell 5:443-453, 2004; cited from earlier work
cathepsin B = target: T5, cathepsin B (Rattus norvegicus, UniProt P00787); experiment: Competition in rat liver homogenates, 125I-labeled JPM-OEt labeling; type: biochemical; settings: FIG. 2, rat liver homogenates
T5 construct: from tissue; host or cells: rat liver lysate / homogenate
T5 sequence (P00787 80-333): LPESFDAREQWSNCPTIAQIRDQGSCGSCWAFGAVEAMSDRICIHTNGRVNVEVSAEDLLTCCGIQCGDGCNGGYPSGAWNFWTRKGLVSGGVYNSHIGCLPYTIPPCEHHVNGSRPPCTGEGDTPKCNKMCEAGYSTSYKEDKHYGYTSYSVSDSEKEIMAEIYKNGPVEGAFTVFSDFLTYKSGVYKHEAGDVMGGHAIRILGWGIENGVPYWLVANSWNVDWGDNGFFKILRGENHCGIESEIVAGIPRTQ
Experimental: (§2) The library compounds all contained a tyrosine residue at the R3 position. They contained either a leucine residue (top and middle panels) or a 4-methylphenylalanine residue (bottom panel) at the A2 position. The amine at R1 is indicated above each panel, with numbering as defined in Table 1. Samples were analyzed by SDS-PAGE followed by autoradiography. Controls (C) are shown where DMSO was added in place of the inhibitor. The parent compounds JPM-OEt (Et) and JPM-565 (OH) are also included as positive controls. Note the loss of reactivity for all (2R,3R) compounds and the change in specificity of JPM analogs in which the (2R,3R) (middle panel—OH and Et) is used in place of the (2S,3S) (top panel—OH and Et) epoxides.
(§3) Joyce et al., Cancer Cell 5:443-453, 2004.
(§4) FIGS. 3 and 4 show additional competition assays with other compounds of the invention at various concentrations. The compounds were added to total rat liver extracts at the indicated concentrations, as described above, and the mixtures were subsequently treated with ^125I-labeled JPM-OEt to label proteins with residual activity. The in vivo pharmacokinetic properties, potency, and selectivity of some of these compounds are further described in Sadaghiani et al., Chem. Biol. 14:499-511, 2007, which is incorporated herein by reference in its entirety.

other cathepsin targets = experiment: Competition/profiling in total rat liver extracts, 125I-labeled JPM-OEt labeling; type: biochemical; settings: FIG. 2, at concentrations as high as 50 micromolar
Experimental: as §2, §3, §4

T1 sequence (P00787 80-333): as above

Row | IC50 (CatB) [nM] | IC50 (CatC) [nM] | IC50 (CatH) [nM] | IC50 (CatZ (Cathepsin Z)) [nM] | Structure (SMILES) | Target (cathepsin targets) | efficacy in the RIP-Tag cancer model (RIP-Tag cancer model) | potency for cathepsin B compared to parent compound JPM-565 (cathepsin B) | activity against other cathepsin targets (other cathepsin targets)
1 | 400 | 1000 | 580 | 100 | CC(C)C[C@H](NC(=O)[C@H]1O[C@@H]1C(=O)O)C(=O)NCCc1ccc(O)cc1 [JPMOH, reference compound] | General | shown to have efficacy in the RIP-Tag cancer model |  | 
2 | 50 | > 50000 | > 50000 | 1800 | CC(C)C[C@H](NC(=O)C1O[C@H]1C(=O)NCCCO)C(=O)N[C@@H](Cc1ccc(O)cc1)C(N)=O (stereo partly drawn) [Compound 52] | Cat B |  | retain similar potency for cathepsin B compared to parent compound JPM-565 | little or no activity against other cathepsin targets
3 | 190 | 19300 | 5850 | 1300 | CCC[C@H](NC(=O)C1O[C@@H]1C(=O)NCC(=O)O)C(=O)N[C@@H](Cc1ccc(O)cc1)C(N)=O (stereo partly drawn) [Compound 79] | Cat B |  |  | 
4 | 10 | > 50000 | > 50000 | > 10000 | CC(C)C[C@H](NC(=O)C1OC1C(=O)NCCc1ccc(O)cc1)C(=O)N[C@@H](Cc1ccc(O)cc1)C(N)=O (single isomer, unassigned) [Compound 46] | Cat B |  | retain similar potency for cathepsin B compared to parent compound JPM-565 | little or no activity against other cathepsin targets
5 | 10 | 11000 | 5450 | 1100 | CC(C)C[C@H](NC(=O)C1OC1C(=O)NCCCO)C(=O)N[C@@H](Cc1ccc(O)cc1)C(N)=O (stereo partly drawn) [Compound 31] | Cat B |  |  | 
6 | 280 | > 10000 | > 10000 | 1000 | CCC[C@H](NC(=O)C1O[C@H]1C(=O)NCC(=O)O)C(=O)N[C@@H](Cc1ccc(O)cc1)C(N)=O (stereo partly drawn) [Compound 78] | Cat B |  |  | 
7 | 270 | > 25000 | > 25000 | 200 | CCC[C@H](NC(=O)C1O[C@H]1C(=O)O)C(=O)N[C@@H](Cc1ccc(O)cc1)C(N)=O (stereo partly drawn) [Compound 75] | Cat B & Z |  |  | 
8 | 20 | 11000 | 21000 | > 10000 | CC(C)C[C@H](NC(=O)C1OC1C(=O)NCCc1ccc(O)cc1)C(=O)N[C@@H](Cc1ccc(O)cc1)C(N)=O (stereo partly drawn) [Compound 25] | Cat B |  |  | 
